From PubChem BioAssay AID1845196 (Molecular Pharmacology Branch, DTP, NCI, 2023)
Values joined by “and” are separate entries in the source; they are usually repeats but may differ in a detail not shown here. Equal values may be shown once.

Test system: 292921-168-R tumor spheroid viability
Test: Anticancer human tumor 292921-168-R patient-derived pancreatic carcinoma cell line growth inhibition
Details: spheroids with HUVEC and MSC; for viability, T/C: stronger effect = lower value
How it was run: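 Complex tumor spheroids combined malignant cells with endothelial cells and mesenchymal stem cells. DNA-damaging drugs and DNA repair inhibitors were tested alone and in combination, at half-log dilutions down from clinical Cmax (top 10 microM if Cmax unknown), 0.25% DMSO final.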

[1] = curve of first compound, second compound 0.003 µM
[2] = curve of first compound, second compound 0.00949 µM
[3] = curve of first compound, second compound 0.03 µM
[4] = curve of first compound, second compound 0.0949 µM
[5] = curve of first compound, second compound 0.3 µM
[6] = second compound 0.003 µM, first compound 0.0949 µM
[7] = second compound 0.003 µM, first compound 0.3 µM
[8] = second compound 0.003 µM, first compound 0.949 µM
[9] = second compound 0.003 µM, first compound 3 µM
[10] = second compound 0.00949 µM, first compound 0.0949 µM
[11] = second compound 0.00949 µM, first compound 0.3 µM
[12] = second compound 0.00949 µM, first compound 0.949 µM
[13] = second compound 0.00949 µM, first compound 3 µM
[14] = second compound 0.03 µM, first compound 0.0949 µM
[15] = second compound 0.03 µM, first compound 0.3 µM
[16] = second compound 0.03 µM, first compound 0.949 µM
[17] = second compound 0.03 µM, first compound 3 µM
[18] = second compound 0.0949 µM, first compound 0.0949 µM
[19] = second compound 0.0949 µM, first compound 0.3 µM
[20] = second compound 0.0949 µM, first compound 0.949 µM
[21] = second compound 0.0949 µM, first compound 3 µM
[22] = second compound 0.3 µM, first compound 0.0949 µM
[23] = second compound 0.3 µM, first compound 0.3 µM
[24] = second compound 0.3 µM, first compound 0.949 µM
[25] = second compound 0.3 µM, first compound 3 µM
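Further: spheroids exposed to compounds for 7 days.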

With `CNCc1ccc(-c2cc(-c3nc(-c4ccc(S(=O)(=O)C(C)C)cc4)cnc3N)on2)cc1` + CC[C@@]1(O)C(=O)OCc2c1cc1n(c2=O)Cc2cc3c(CN(C)C)c(O)ccc3nc2-1 the IC50 [1] was 0.107 µM, the IC50 [2] was 0.0692 µM and the IC50 [3] was less than 0.00949 µM. It also gave an IC50 [4] of less than 0.00949 µM, an IC50 [5] of less than 0.00949 µM and a viability, T/C (second compound 0.003 µM, first compound 0.00949 µM) of 92.2%. The viability, T/C (second compound 0.003 µM, first compound 0.03 µM) was 77.3%, the viability, T/C [6] was 55.9% and the viability, T/C [7] was 21.1%. For the same compound, the viability, T/C [8] was 16.6%, the viability, T/C [9] was 8.99% and the viability, T/C (second compound 0.00949 µM, first compound 0.00949 µM) was 73.1%. It also gave a viability, T/C (second compound 0.00949 µM, first compound 0.03 µM) of 74.7%, a viability, T/C [10] of 41% and a viability, T/C [11] of 16.7%. For the same compound, the viability, T/C [12] was 15.6%, the viability, T/C [13] was 10.3% and the viability, T/C (second compound 0.03 µM, first compound 0.00949 µM) was 35.9%. The viability, T/C (second compound 0.03 µM, first compound 0.03 µM) was 32.9%, the viability, T/C [14] was 27% and the viability, T/C [15] was 14.7%. For the same compound, the viability, T/C [16] was 13.4%, the viability, T/C [17] was 9.47% and the viability, T/C (second compound 0.0949 µM, first compound 0.00949 µM) was 12.6%. It also gave a viability, T/C (second compound 0.0949 µM, first compound 0.03 µM) of 15%, a viability, T/C [18] of 11.2% and a viability, T/C [19] of 10.1%. The viability, T/C [20] was 10.3%, the viability, T/C [21] was 2.13% and the viability, T/C (second compound 0.3 µM, first compound 0.00949 µM) was 4.63%. The viability, T/C (second compound 0.3 µM, first compound 0.03 µM) was 4.83%, the viability, T/C [22] was 4.59% and the viability, T/C [23] was 5.23%. For the same compound, the viability, T/C [24] was 6.72% and the viability, T/C [25] was 0.97%.

For `O=C(c1cc(Cc2n[nH]c(=O)c3ccccc23)ccc1F)N1CCN(C(=O)C2CC2)CC1` + CC[C@@]1(O)C(=O)OCc2c1cc1n(c2=O)Cc2cc3c(CN(C)C)c(O)ccc3nc2-1, the IC50 [1] was 5.58 µM, the IC50 [2] was 3.25 µM and the IC50 [3] was less than 0.0949 µM. For the same compound, the IC50 [4] was less than 0.0949 µM, the IC50 [5] was less than 0.0949 µM and the viability, T/C [6] was 85.8%. It also gave a viability, T/C [7] of 84.9%, a viability, T/C [8] of 83.2% and a viability, T/C [9] of 71.3%. It also gave a viability, T/C (second compound 0.003 µM, first compound 9.49 µM) of 31.7%, a viability, T/C (second compound 0.003 µM, first compound 30 µM) of 25.6% and a viability, T/C [10] of 58.6%. It also gave a viability, T/C [11] of 55%, a viability, T/C [12] of 58.4% and a viability, T/C [13] of 51.2%. The viability, T/C (second compound 0.00949 µM, first compound 9.49 µM) was 31.1%, the viability, T/C (second compound 0.00949 µM, first compound 30 µM) was 23.9% and the viability, T/C [14] was 22.6%. It also gave a viability, T/C [15] of 22.7%, a viability, T/C [16] of 20.4% and a viability, T/C [17] of 19.9%. The viability, T/C (second compound 0.03 µM, first compound 9.49 µM) was 18.1%, the viability, T/C (second compound 0.03 µM, first compound 30 µM) was 18.6% and the viability, T/C [18] was 10.1%. It also gave a viability, T/C [19] of 11.3%, a viability, T/C [20] of 11.2% and a viability, T/C [21] of 10%. It also gave a viability, T/C (second compound 0.0949 µM, first compound 9.49 µM) of 8.85%, a viability, T/C (second compound 0.0949 µM, first compound 30 µM) of 10.6% and a viability, T/C [22] of 4.24%. The viability, T/C [23] was 4.06%, the viability, T/C [24] was 4.61% and the viability, T/C [25] was 4.65%. For the same compound, the viability, T/C (second compound 0.3 µM, first compound 9.49 µM) was 3.41% and the viability, T/C (second compound 0.3 µM, first compound 30 µM) was 3.89%.

`COc1cc(C)[nH]c(=O)c1CN1CCc2c(Cl)cc(C(OC)C3COC3)c(Cl)c2C1=O` (centres undefined) was tested, and the viability, T/C (compound 0.0316 µM) was 108% and 97.3% and 113%, the viability, T/C (compound 0.1 µM) was 112% and 106% and 113% and the viability, T/C (compound 0.316 µM) was 115% and 92.9% and 89.7%. The viability, T/C (compound 1 µM) was 109% and 95.4% and 97.2%, the viability, T/C (compound 3.16 µM) was 90.3% and 89.2% and 90.4% and the viability, T/C (compound 10 µM) was 101% and 89.8% and 75.1%. It also gave an IC50 (curve of compound) greater than 10 µM.

`CC1COCCN1c1cc(-c2ccnn2C)c2ccnc(-c3ccn[nH]3)c2n1` (centres undefined) + Cn1nnc2c(C(N)=O)ncn2c1=O showed an IC50 (curve of first compound, second compound 1 µM) of less than 0.0316 µM, an IC50 (curve of first compound, second compound 3.16 µM) of less than 0.0316 µM and an IC50 (curve of first compound, second compound 10 µM) of less than 0.0316 µM. It also gave an IC50 (curve of first compound, second compound 31.6 µM) of less than 0.0316 µM, an IC50 (curve of first compound, second compound 100 µM) of less than 0.0316 µM and a viability, T/C (second compound 1 µM, first compound 0.0316 µM) of 29%. For the same compound, the viability, T/C (second compound 1 µM, first compound 0.1 µM) was 15.5%, the viability, T/C (second compound 1 µM, first compound 0.316 µM) was 13% and the viability, T/C (second compound 1 µM, first compound 1 µM) was 13.1%. The viability, T/C (second compound 1 µM, first compound 3.16 µM) was 14.6%, the viability, T/C (second compound 1 µM, first compound 10 µM) was 15.8% and the viability, T/C (second compound 3.16 µM, first compound 0.0316 µM) was 30.4%. The viability, T/C (second compound 3.16 µM, first compound 0.1 µM) was 17.8%, the viability, T/C (second compound 3.16 µM, first compound 0.316 µM) was 14.5% and the viability, T/C (second compound 3.16 µM, first compound 1 µM) was 13%. For the same compound, the viability, T/C (second compound 3.16 µM, first compound 3.16 µM) was 14.2%, the viability, T/C (second compound 3.16 µM, first compound 10 µM) was 15.8% and the viability, T/C (second compound 10 µM, first compound 0.0316 µM) was 27.9%. For the same compound, the viability, T/C (second compound 10 µM, first compound 0.1 µM) was 16.2%, the viability, T/C (second compound 10 µM, first compound 0.316 µM) was 12.1% and the viability, T/C (second compound 10 µM, first compound 1 µM) was 12.8%. It also gave a viability, T/C (second compound 10 µM, first compound 3.16 µM) of 15.2%, a viability, T/C (second compound 10 µM, first compound 10 µM) of 15.6% and a viability, T/C (second compound 31.6 µM, first compound 0.0316 µM) of 24.3%. The viability, T/C (second compound 31.6 µM, first compound 0.1 µM) was 17.9%, the viability, T/C (second compound 31.6 µM, first compound 0.316 µM) was 12.5% and the viability, T/C (second compound 31.6 µM, first compound 1 µM) was 12.8%. The viability, T/C (second compound 31.6 µM, first compound 3.16 µM) was 13.9%, the viability, T/C (second compound 31.6 µM, first compound 10 µM) was 15.3% and the viability, T/C (second compound 100 µM, first compound 0.0316 µM) was 16.9%. For the same compound, the viability, T/C (second compound 100 µM, first compound 0.1 µM) was 11.8%, the viability, T/C (second compound 100 µM, first compound 0.316 µM) was 9.95% and the viability, T/C (second compound 100 µM, first compound 1 µM) was 11.3%. For the same compound, the viability, T/C (second compound 100 µM, first compound 3.16 µM) was 13% and the viability, T/C (second compound 100 µM, first compound 10 µM) was 14.7%.

With `CC1COCCN1c1cc(-c2ccnn2C)c2ccnc(-c3ccn[nH]3)c2n1` (centres undefined) the viability, T/C (compound 0.0316 µM) was 26.3% and 36.1% and 39.6%, the viability, T/C (compound 0.1 µM) was 14.2% and 20.1% and 22% and the viability, T/C (compound 0.316 µM) was 11.9% and 13.8% and 14.4%. The viability, T/C (compound 1 µM) was 13.8% and 13.7% (2×), the viability, T/C (compound 3.16 µM) was 14.8% and 14.5% and 14.9% and the viability, T/C (compound 10 µM) was 16.8% and 16% and 16.7%. The IC50 (curve of compound) was less than 0.0316 µM.
